≈ marks a conversion by molar mass, not a printed value. Read-outs that look alike come from different tables or passages of the source.
What was measured:
Format in all cases: cell-based
S. typhi UC 215 = assay: standard microplate test in BHI Agar; conditions: Salmonella enterica, 20 h
Protocol: (§1) The compounds VII, XI, XVβ, XVα and XVI were tested in a standard microplate test in BHI (Brain Heart Infusion) Agar at a concentration of 1 mg./ml. and dilutions thereof at 37° incubation temperature. The end points are read out 20 hours. BHI Agar is supplied by Difco Laboratories, Detroit, Mich.

Ps. aeruginosa UC 95 [1] = assay: standard microplate test in BHI Agar; conditions: Pseudomonas aeruginosa
Protocol: as §1

S. marcescens UC 131 = assay: standard microplate test in BHI Agar; conditions: Serratia marcescens, UC131, 20 h
Protocol: as §1

S. schottmuelleri UC 126 [2] = assay: standard microplate test in BHI Agar; conditions: 37°, 20 hours
Protocol: as §1

P. vulgaris UC 93 [3] = assay: standard microplate test in BHI Agar; conditions: Proteus vulgaris, UC93, 20 h
Protocol: as §1

P. rettgeri UC 339 = assay: standard microplate test in BHI Agar; conditions: Providencia rettgeri
Protocol: as §1

K. pneumoniae UC 58 = assay: standard microplate test in BHI Agar; conditions: Klebsiella pneumoniae
Protocol: as §1

S. pneumoniae I UC 41 = assay: standard microplate test in BHI Agar; conditions: Streptococcus pneumoniae, UC41, 20 h
Protocol: as §1

E. coli UC 45 = assay: standard microplate test in BHI Agar; conditions: Escherichia coli, UC45, 37°, 20 hours, Table III, read-out: Minimum Inhibitory Concentration
Protocol: as §1

P. mirabilis UC 6671 = assay: standard microplate test in BHI Agar; conditions: Proteus mirabilis, UC6671, 20 h
Protocol: as §1

S. faecalis UC 694 = assay: standard microplate test in BHI Agar; conditions: Enterococcus faecalis
Protocol: as §1

P. morganii UC 3186 = assay: standard microplate test in BHI Agar; conditions: Morganella morganii
Protocol: as §1

S. aureus UC 76 = assay: standard microplate test in BHI Agar; conditions: Staphylococcus aureus
Protocol: as §1

S. flexneri UC 143 = assay: standard microplate test in BHI Agar; conditions: Shigella flexneri, UC143, 37°, 20 hours
Protocol: as §1

S. pyogenes UC 152 = assay: standard microplate test in BHI Agar; conditions: Streptococcus pyogenes
Protocol: as §1

Ps. aeruginosa UC 95 [4] = assay: standard disc plate assay, zones of inhibition; conditions: Pseudomonas aeruginosa, UC95; 1 mg/ml; 12.5 mm paper discs; Table I; read-out: Zones of Inhibition
Text: (§2) The compounds of formulas (V, VII, IX, XI, XIV, XVI, and XIX) are active as antibacterials and can be used in various environments to erradicate or control susceptible microorganisms. Tables I and II set forth the in vitro antibacterial test results for representative compounds of the present invention. The results were obtained with a standard disc plate assay using 12.5 mm paper discs.

K. pneumoniae UC 57 = assay: standard disc plate assay, zones of inhibition; conditions: Klebsiella pneumoniae, UC57, 12.5 mm paper discs, Table I, read-out: Zones of Inhibition
Text: as §2

S. gallinarum UC 265 = assay: standard disc plate assay, zones of inhibition; conditions: Salmonella enterica, 12.5 mm paper discs, Table I, read-out: Zones of Inhibition
Text: as §2

S. schottmuelleri UC 126 [5] = assay: standard disc plate assay, zones of inhibition; conditions: 12.5 mm paper discs, Table I
Text: as §2

S. aureus UC 80 = assay: standard disc plate assay, zones of inhibition; conditions: Staphylococcus aureus, UC80, 12.5 mm paper discs, Table I, read-out: Zones of Inhibition
Text: as §2

P. vulgaris UC 93 [6] = assay: standard disc plate assay, zones of inhibition; conditions: Proteus vulgaris, UC93, 12.5 mm paper discs, Table I, read-out: Zones of Inhibition
Text: as §2

B. cereus UC 3145 = assay: standard disc plate assay, zones of inhibition; conditions: Bacillus cereus, UC3145, 12.5 mm paper discs, Table I, read-out: Zones of Inhibition
Text: as §2

B. subtilis UC 564 = assay: standard disc plate assay, zones of inhibition; conditions: Bacillus subtilis, UC564, 12.5 mm paper discs, Table I, read-out: Zones of Inhibition
Text: as §2

S. lutea UC 130 = assay: standard disc plate assay, zones of inhibition; conditions: Micrococcus luteus, UC130; 1 mg/ml; 12.5 mm paper discs; Table I; read-out: Zones of Inhibition
Text: as §2

E. coli UC 51 = assay: standard disc plate assay, zones of inhibition; conditions: Escherichia coli, UC51, 12.5 mm paper discs, Table I, read-out: Zones of Inhibition
Text: as §2

E. coli UC 311 = assay: standard microplate test in BHI Agar; conditions: Escherichia coli, UC311, 20 h, read-out: Minimal Inhibitory Concentration
Protocol: as §1

[7] = read-out: Minimum Inhibitory Concentration
[8] = Table III, read-out: Minimum Inhibitory Concentration
[9] = read-out: Minimal Inhibitory Concentration
[10] = Table IV, read-out: Minimal Inhibitory Concentration

With `NC[C@H]1O[C@H](O[C@H]2[C@H](O)C[C@H](N)C[C@@H]2N)[C@H](N)[C@@H](O)[C@@H]1O` [6-deoxyneamine (XI), 6-deoxyneamine] as the compound, how does the MIC (S. typhi UC 215; [7]) read?
The MIC was 31.2 µg/mL (≈ 102 µM).

And the MIC (Ps. aeruginosa UC 95 [1]; UC95, 20 h, read-out: Minimum Inhibitory Concentration)?
The MIC was > 500 µg/mL.

What about the MIC (S. marcescens UC 131; [7]) of the same compound?
Its MIC is 250 µg/mL (≈ 816 µM).

And the MIC (S. schottmuelleri UC 126 [2]; [8])?
The MIC was 31.2 µg/mL (≈ 102 µM).

What about the MIC (P. vulgaris UC 93 [3]; [7]) of the same compound?
The MIC was 31.2 µg/mL (≈ 102 µM).

What about the MIC (P. rettgeri UC 339; UC339, 20 h, read-out: Minimum Inhibitory Concentration) of the same compound?
The MIC was 250 µg/mL (≈ 816 µM).

And the MIC (K. pneumoniae UC 58; UC58, 20 h, read-out: Minimum Inhibitory Concentration)?
Its MIC is 7.8 µg/mL (≈ 25.5 µM).

And the MIC (S. pneumoniae I UC 41; [7])?
The MIC was 62.5 µg/mL (≈ 204 µM).

And the MIC (E. coli UC 45)?
Its MIC is 31.2 µg/mL (≈ 102 µM).

And the MIC (P. mirabilis UC 6671; [7])?
Its MIC is 62.5 µg/mL (≈ 204 µM).

What about the MIC (S. faecalis UC 694; UC694, 20 h, read-out: Minimum Inhibitory Concentration) of the same compound?
The MIC was > 500 µg/mL.

What about the MIC (P. morganii UC 3186; UC3186, 20 h, read-out: Minimum Inhibitory Concentration) of the same compound?
The MIC was 62.5 µg/mL (≈ 204 µM).

And the MIC (S. aureus UC 76; UC76, BHI Agar, 37°, 20 hours, Table III, read-out: Minimum Inhibitory Concentration)?
The MIC was 3.9 µg/mL (≈ 12.7 µM).

What about the MIC (S. flexneri UC 143; [8]) of the same compound?
Its MIC is 62.5 µg/mL (≈ 204 µM).

What about the MIC (S. pyogenes UC 152; UC152, 20 h, read-out: Minimum Inhibitory Concentration) of the same compound?
The MIC was 15.6 µg/mL (≈ 50.9 µM).

For `NC[C@H]1O[C@H](O[C@@H]2[C@@H](N)C[C@@H](N)C[C@H]2O[C@@H]2O[C@H](CO)[C@@H](O)[C@H]2O)[C@H](N)[C@@H](O)[C@@H]1O` [Compound XVβ, O-2,6-diamino-2,6-dideoxy-α-D-glucopyranosyl (1→4)-O-[β-D-ribofuranosyl(1→5)]-2,6-dideoxy-D-streptamine], which zone of inhibition at 1000 µg/mL (Ps. aeruginosa UC 95 [4]) is on record?
The zone of inhibition at 1000 µg/mL was 15 mm.

And the zone of inhibition at 100 µg/mL (K. pneumoniae UC 57; 0.1 mg/ml)?
The zone of inhibition at 100 µg/mL was 28 mm.

What about the zone of inhibition at 1000 µg/mL (K. pneumoniae UC 57; 1 mg/ml) of the same compound?
Its zone of inhibition at 1000 µg/mL is 36 mm.

What about the zone of inhibition at 100 µg/mL (S. gallinarum UC 265; 0.1 mg/ml) of the same compound?
Its zone of inhibition at 100 µg/mL is 21 mm.

What about the zone of inhibition at 1000 µg/mL (S. gallinarum UC 265; 1 mg/ml) of the same compound?
The zone of inhibition at 1000 µg/mL was 29 mm.

What about the zone of inhibition at 100 µg/mL (S. schottmuelleri UC 126 [5]; 0.1 mg/ml) of the same compound?
The zone of inhibition at 100 µg/mL was 16 mm.

What about the zone of inhibition at 1000 µg/mL (S. schottmuelleri UC 126 [5]; 1 mg/ml) of the same compound?
Its zone of inhibition at 1000 µg/mL is 24 mm.

What about the zone of inhibition at 100 µg/mL (S. aureus UC 80; 0.1 mg/ml) of the same compound?
Its zone of inhibition at 100 µg/mL is 19 mm.

And the zone of inhibition at 1000 µg/mL (S. aureus UC 80; 1 mg/ml)?
Its zone of inhibition at 1000 µg/mL is 27 mm.

What about the zone of inhibition at 100 µg/mL (P. vulgaris UC 93 [6]; 0.1 mg/ml) of the same compound?
The zone of inhibition at 100 µg/mL was 18 mm.

And the zone of inhibition at 1000 µg/mL (P. vulgaris UC 93 [6]; 1 mg/ml)?
The zone of inhibition at 1000 µg/mL was 27 mm.

What about the zone of inhibition at 100 µg/mL (B. cereus UC 3145; 0.1 mg/ml) of the same compound?
The zone of inhibition at 100 µg/mL was 17 mm.

And the zone of inhibition at 1000 µg/mL (B. cereus UC 3145; 1 mg/ml)?
The zone of inhibition at 1000 µg/mL was 26 mm.

What about the zone of inhibition at 100 µg/mL (B. subtilis UC 564; 0.1 mg/ml) of the same compound?
The zone of inhibition at 100 µg/mL was 31 mm.

What about the zone of inhibition at 1000 µg/mL (B. subtilis UC 564; 1 mg/ml) of the same compound?
Its zone of inhibition at 1000 µg/mL is 39 mm.

And the zone of inhibition at 1000 µg/mL (S. lutea UC 130)?
Its zone of inhibition at 1000 µg/mL is 19 mm.

And the zone of inhibition at 100 µg/mL (E. coli UC 51; 0.1 mg/ml)?
The zone of inhibition at 100 µg/mL was 20 mm.

And the zone of inhibition at 1000 µg/mL (E. coli UC 51; 1 mg/ml)?
Its zone of inhibition at 1000 µg/mL is 27 mm.

And the MIC (S. typhi UC 215; [9])?
Its MIC is 15.6 µg/mL (≈ 35.6 µM).

What about the MIC (Ps. aeruginosa UC 95 [1]; UC95, BHI Agar, 37°, 20 hours, Table IV, read-out: Minimal Inhibitory Concentration) of the same compound?
Its MIC is > 500 µg/mL.

What about the MIC (S. marcescens UC 131; [9]) of the same compound?
Its MIC is 62.5 µg/mL (≈ 143 µM).

What about the MIC (S. schottmuelleri UC 126 [2]; [10]) of the same compound?
Its MIC is 7.8 µg/mL (≈ 17.8 µM).

What about the MIC (P. vulgaris UC 93 [3]; [9]) of the same compound?
The MIC was 31.2 µg/mL (≈ 71.2 µM).

What about the MIC (P. rettgeri UC 339; UC339, BHI Agar, 37°, 20 hours, Table IV, read-out: Minimal Inhibitory Concentration) of the same compound?
The MIC was > 500 µg/mL.

What about the MIC (K. pneumoniae UC 58; UC58, BHI Agar, 37°, 20 hours, Table IV, read-out: Minimal Inhibitory Concentration) of the same compound?
The MIC was 2 µg/mL (≈ 4.56 µM).

What about the MIC (S. pneumoniae I UC 41; [9]) of the same compound?
Its MIC is 15.6 µg/mL (≈ 35.6 µM).

And the MIC (E. coli UC 311)?
The MIC was 31.2 µg/mL (≈ 71.2 µM).

And the MIC (P. mirabilis UC 6671; [9])?
The MIC was 125 µg/mL (≈ 285 µM).

What about the MIC (S. faecalis UC 694; UC694, BHI Agar, 37°, 20 hours, Table IV, read-out: Minimal Inhibitory Concentration) of the same compound?
Its MIC is 500 µg/mL (≈ 1140 µM).

And the MIC (P. morganii UC 3186; UC3186, BHI Agar, 37°, 20 hours, Table IV, read-out: Minimal Inhibitory Concentration)?
Its MIC is 7.8 µg/mL (≈ 17.8 µM).

What about the MIC (S. aureus UC 76; UC76, 20 h, read-out: Minimal Inhibitory Concentration) of the same compound?
Its MIC is 31.2 µg/mL (≈ 71.2 µM).

What about the MIC (S. flexneri UC 143; [10]) of the same compound?
Its MIC is 31.2 µg/mL (≈ 71.2 µM).

And the MIC (S. pyogenes UC 152; UC152, BHI Agar, 37°, 20 hours, Table IV, read-out: Minimal Inhibitory Concentration)?
The MIC was 3.9 µg/mL (≈ 8.89 µM).

— patent US4169197A, “6-Deoxyneamines aminoglycoside compounds” (The Upjohn Company, priority 1978, dated 1979)
